Test results from US5358936A, “Anionic furanose derivatives, methods of making and using the same” (Gordon; Paul, priority 1991, dated 1994).
“And” between values parts separate entries of the source, which are not always exact repeats. Equal values may be shown once. “Also recorded” adds a separate entry of the source. Where a name gives a salt, the structure may show the parent alone.

Tests used:
[1] = system: focal submucosal lesions; experiment: Ethanol-induced gastric focal lesions (Example 33); format: in vivo, rat
Method: At three hours after ethanol administration, this drug continued to suppress ethanol-induced focal lesions (-57 percent).
A suspension of 25 mg/kg sucralfate+25 mg/kg Compound III:Al in combination was given as a pretreatment administration to another group in the same study. The combination produced an unanticipated augmentation of therapeutic effect against ethanol-induced focal submucosal lesions (-90 percent) at three hours post-ethanol administration. The same interactive phenomenon was also observed when Compound III was used, rather than Compound III:Al.

[2] = system: gastric mucosal ulcers; experiment: Healing of established gastric ulcers induced by acetic acid (Example 34); format: in vivo, rat
Description: To evaluate drug effects on peptic ulcer healing, gastric mucosal ulcers were produced in rats, after a two day fast, by a modification of the method of Konturek et al., Am. J. Med., Vol. 86, 6A, 32 (1989). Briefly, to produce a mucosal ulcer, Konturek et al. applied 100 percent acetic acid for twenty seconds to the stomach serosa through a small cylindrical mold, 4.2 mm in diameter. The aim here was to make ulceration more severe than was achieved by the Konturek group so that spontaneous healing would not be as pronounced as they found in the controls, over an experimental period of seven days.
All drugs studied were suspended in 0.25 percent (by weight) aqueous methylcellulose solution as the vehicle or diluent, which also served as the placebo given to the controls. Treatments were given once daily by oral gavage, in one milliliter of vehicle. The treatment groups were: Control; Sucralfate at 200 mg/kg; and Compound III:Al at 200 mg/kg.
At the end of the treatment period, stomachs were removed, ulcer diameters were measured, and determination was made of the presence or absence of perforation.
A second study was carried out in which ulcer evolution was permitted to take place over five additional days, in the absence and presence of treatment with Sucralfate.
A third study was begun one day following the start of study 2, in which ulcer evolution was allowed to take place over five additional days, in the absence and presence of treatment with Compound III:Al.
In another study, after ulcer induction as above, a different dosage protocol was employed at 24 hours to evaluate the interaction of Compound III and orally administered sucralfate on ulcer healing. […] Here, daily drug doses of the following were used: (a) sucralfate at 200 mg/kg, alone and (b) in combination with 80 mg/kg Compound III given by mouth at -45 minutes, and, in a third group, (c) in combination with 10 mg/kg Compound III given IV also at -45 minutes. In this interaction study, drug treatment was continued for three and not five days, as was the case for the above studies, followed by passage of two additional non-treatment days before sacrifice of animals for evaluation of stomach ulcer area and perforation.
Data from all ulcer-healing studies employing a drug dosage of 200 mg/kg and the same ulcerogenesis protocol were pooled as to the frequency of gastric perforation observed on day five, not shown separately, with the day six perforation data shown above.

[3] = Solubility / dissolution in acid, water and 20 percent methanol; format: physicochemical; details: pH 1.2; Compound III:Al 2.5 mg/ml
[4] = system: focal submucosal lesions; experiment: Ethanol-induced gastric focal lesions (Example 33); format: in vivo, rat; details: one hour post-ethanol, 50 mg/kg
[5] = Dissolution and buffering of suspensions, HCl titration (Example 16)
Description: Note that the term "apparent pK" in this context is meant to encompass the maximization of buffering that come both from solid-state dissolution and its titration as solute.

[6] = system: peritoneal neutrophils; experiment: In vitro neutrophil chemotaxis toward zymosan-activated rat serum (Example 24); format: cell-based, mouse; details: for IC50: 6 h, 20 percent zymosan-activated rat serum, six hours, 37° C., read-out: ID50 (molar concentration that inhibited chemotaxis by 50 percent); for inhibition at 10 µg/mL: dose 10.0 μg/ml
Method: In vitro neutrophil chemotaxis studies were carried out by standard methods, as follows:
Mice were injected with complete Freund's adjuvant (CFA) and peritoneal cells, principally neutrophjls (>90 percent), were reproved from the mice 24 hours thereafter. Blind-well chemotactic chambers (Nucleopore Corp., Pleasanton, Calif.) were utilized.
Medium (RPMI 1640 plus 10 percent fetal calf serum) or medium plus 20 percent zymosan-activated rat serum (ZAS) was added to the lower compartment of each chamber. A nucleopore filter (8 μm pore size) was placed between compartments and 1×10^5 peritoneal neutrophils (above) suspended in medium were placed in the upper compartment. Chambers were incubated for six hours, after which time the filters were removed and stained with Giemsa stain. The number of cells on the lower surface of the filter was counted under a microscope. Treatment groups were assayed in duplicate.
The studies were carried out more specifically as follows:
Zymosan (Sigma Chemical Co., St. Louis, Mo.) was mixed with rat serum for one hour at 37° C. at 1 milligram (mg)/ml. The resulting chemoattractant composition was filtered, aliquotted and stored frozen at -70° C. prior to use.
The above chemoattractant composition was used as a 20 percent v/v solution in medium.
The chemotaxis chambers were arranged as follows:
The chambers were incubated at 37° C. for six hours, after which the chambers were dismantled, and the filters removed and treated as follows:
a) The filters were immersed in Giemsa stain diluted 1:50 for 30-45 minutes.
b) The stained filters were rinsed gently in distilled water for 3-5 minutes.
c) The stained, rinsed filters were air dried without blotting.
Several compounds described herein and control compounds ("drug", above) were examined at various concentrations, in duplicate. The molar concentration of a drug that inhibited the observed chemotaxis by 50 percent, defined as the ID50 value, was determined as shown below.

[7] = system: neutrophils; experiment: Microscopic examination of neutrophils for cytotoxicity (Example 24); format: cell-based, mouse
[8] = system: rat paw; experiment: Post-ischemic reperfusion paw swelling (Example 22); format: in vivo, Sprague Dawley male rats; details: study C, 0.2 mg/kg i.p.
Description: This important disease model is used to evaluate aspects of tissue injury that occur in heart attack, or myocardial infarction, and stroke. Under these conditions, a significant period of injury can occur after blood flow has been restored, during the period of reperfusion.
To produce ischemia, blood flow to the left hind foot was largely interrupted by application of a tourniquet made up of two size 18 rubber bands wound eight times around the leg just behind the heel. […] Both application and removal of tourniquet were carried out under ether anesthesia. Injury was equated with organ swelling, which was assayed by measurement of the dorsoventral foot diameter with a Schnelltaster caliper, just before application of the tourniquet and at various times following tourniquet removal, during the reperfusion period.
Rats employed were Sprague Dawley males, weighing 240-280 grams. Drug comparisons were made here employing measurements 30 minutes into the reperfusion period. The widely studied drug allopurinol, a xanthine oxidase inhibitor and a free radical scavenging agent, used in the treatment of gout, and widely used to suppress experimental post-ischemic reperfusion injury was used as an experimental treatment standard. In studies below, allopurinol and all new drugs were given intraperitoneally 45-60 minutes prior to application of the tourniquet. Data are reported as the mean swelling (Mn)±standard error (SE). […] Group n is 5 or 6.
In another study, drug comparisons were made at various times after the reperfusion period. In this study, control and drug treatment groups were as above.

[9] = system: mouse blood coagulation
Method: To assess the effect on coagulation, if any, of a compound of the invention, a comparative evaluation was made using mouse blood.
One ml of freshly drawn mouse blood was added to each tube, and the tube contents were mixed. The clotting time was then noted for each tube, and the results are as shown below:

[10] = three hours post-ethanol, 50 mg/kg, combination 25 + 25 mg/kg
[11] = Mus musculus, Neutrophil, dose 1.0 μg/ml, read-out: Percent Inhibition of chemotaxis
[12] = Mus musculus, Neutrophil, read-out: Percent Inhibition of chemotaxis

With “Aluminum Complex of 1,2-O-(1-Isopropylidene)-3,5,6-Tri-O-Sulfo-D-Glucofuranose [Compound III:Al]” the “effect on ethanol-produced gastric pathology, in words” value ([1]; pretreatment 50 mg/kg one hour before ethanol) was “inhibited all focal lesions provoked by ethanol after one hour without suppressing large-vessel vasodilation”, the “change in focal lesions versus control” value [1, 10] was -57% and the “change in focal lesions versus control, study employing Compound III” value [1, 10] was -33%. The “Focal Lesions per Stomach, study employing Compound III” value ([1]; three hours post-ethanol, 50 mg/kg, combination 25 + 25 mg/kg, control 2.25 ± 0.98) was 1.50 + 0.76 per Stomach, the “Focal Lesions per Stomach” value ([1]; three hours post-ethanol, 50 mg/kg, combination 25 + 25 mg/kg, n = 17, control 4.94 ± 1.41) was 2.12 ± 0.87 per Stomach and the “DRUG EFFECT on mean ulcer score” value ([2]; Day 6, 200 mg/kg oral) was -80%. The “Established ulcer score, individual animal (area in cm^2, + 2.0 for perforation)” value ([2]; Day 6, 200 mg/kg oral once daily, * = perforation, 200 mg/kg) was 1.2 and 5.75 and 0.72 and 0.8 and 0.5 and 0.3 and 0.56 and 1.4 and 0.90 and 1.44, the “MEAN SCORE, established ulcers” value ([2]; Day 6, 200 mg/kg oral, controls 3.03 ± 0.73 (sucralfate study, not significant), 4.12 ± 0.67 (Compound III:Al study, P < 0.001)) was 0.82 ± 0.13 and the “DRUG EFFECT on mean ulcer area” value ([2]; day six, 200 mg/kg oral) was -65%. For the same molecule, the “Established ulcer area, MEAN” value ([2]; day six, 200 mg/kg oral, controls 2.14 ± 0.43 (sucralfate, P < 0.1), 2.32 ± 0.61 (Compound III:Al, P < 0.05)) was 0.82 ± 0.13 CM^2, the “Perforation As Percent” value ([2]; pooled, 200 mg/kg, control 50, Compound III:Al P < 0.001 vs control and vs sucralfate) was 0% and the “Perforation Frequency” value ([2]; pooled, 200 mg/kg, days five and six, control 26/52) was 0/49. The “dissolution of suspension in acid” value [3] was “still not all dissolved”, the “change in focal lesions versus control” value [4] was -100% and the “Focal Lesions per Stomach” value ([4]; n = 6, control 4.17 ± 1.58, p<0.05) was 0.00 per Stomach. For the same molecule, the “HCl needed to lower pH of suspension to below pH 2.00” value ([5]; 50 mg in 20 ml distilled water, initial pH 4.44 (aluminum trihydroxide), 4.91 (sucralfate), 4.23 (Compound III:Al), water alone 0.30) was 1.2 meq, the “buffering action, in words” value ([5]; HCl titration) was “better dissolution-and-buffering action between pH 4.5 and 2.0 than either aluminum trihydroxide or sucralfate; also recorded: no buffering power whatsoever at this pH value” and the “Relative Buffering Power between pH 4.5 and 2.0” value ([5]; sucralfate = 1) was 11.
`CCCN(CCC)S(=O)(=O)c1ccc(C(=O)O)cc1` [Probenecid, reference compound] gave an IC50 ([6]; Mus musculus, Neutrophil) of 3000 nM, an inhibition at 0.1 µg/mL ([6]; Mus musculus, Neutrophil, dose 0.1 μg/ml, read-out: Percent Inhibition of chemotaxis) of 5.5% and an inhibition at 1 µg/mL [6, 11] of 59.5%. For the same molecule, the inhibition at 10 µg/mL [6, 12] was 89.5% and the “expressions of cytotoxicity in neutrophils by microscopic examination” value [7] was “stringy, elongated deformation in the neutrophils”.
In the case of `CC1(C)O[C@H]2O[C@H]([C@H](O)COP(=O)(O)O)[C@H](OP(=O)(O)O)[C@H]2O1` [Compound VI, 1,2-O-(2-Propylidene)-3,6-di-O-phospho-α-D-glucofuranose, tetrapotassium salt], the IC50 ([6]; Mus musculus, Neutrophil) is reported as 1000 nM, the inhibition at 1 µg/mL [6, 11] is reported as 44% and the inhibition at 10 µg/mL [6, 12] is reported as 85%. For the same molecule, the “Percent Inhibition of chemotaxis” value ([6]; dose 1.0 μg/ml) was 47.0%, the “expressions of cytotoxicity in neutrophils by microscopic examination” value [7] was “diffuse toxic granularity in the cells” and the “Post-ischemic reperfusion 30 minute paw swelling, Mn ± SE” value ([8]; control 18.4 ± 0.54, P < 0.02) was 9.1 ± 0.27 0.1 mm. The “Swelling change as a result of treatment” value ([8]; 30 minutes) was -50%.
In the case of Heparin, the “effect on blood coagulation, in words” value [9] is reported as “uncoagulatable after 60 minutes”.
